Assay results as given in patent US8653096B2, “Chemokine receptor antagonists and methods of use thereof” (Millennium Pharmaceuticals, Inc., priority 2001, dated 2014).
Like-named read-outs stand apart in the source and are kept apart here.

Target: T1, RANTES/MIP-1α chemokine receptor (CCR1) in THP-1 cell membranes (Homo sapiens, UniProt P32246)
T1 construct: Membranes were prepared from THP-1 cells (ATCC #TIB202); host or cells: THP-1 cells (membrane preparation)
T1 sequence (P32246 1-355): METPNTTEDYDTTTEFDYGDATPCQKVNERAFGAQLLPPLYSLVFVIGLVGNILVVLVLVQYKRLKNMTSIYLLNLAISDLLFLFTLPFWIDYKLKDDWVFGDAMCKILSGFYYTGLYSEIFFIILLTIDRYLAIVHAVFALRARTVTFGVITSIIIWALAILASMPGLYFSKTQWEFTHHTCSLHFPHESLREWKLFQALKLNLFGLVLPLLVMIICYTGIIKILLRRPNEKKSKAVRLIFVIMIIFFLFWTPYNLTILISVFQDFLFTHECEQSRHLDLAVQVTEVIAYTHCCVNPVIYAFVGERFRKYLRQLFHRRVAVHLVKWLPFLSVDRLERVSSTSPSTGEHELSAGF
Experiment: Receptor binding assay: 125I-RANTES or 125I-MIP-1α binding to THP-1 cell membranes

[1] = inhibitor concentration required for 50% inhibition of specific binding, 125I-RANTES or 125I-MIP-1α as ligand, THP-1 cell membranes, read-out: IC50

Compound CCN(CC)CCOC(=O)c1ccc2c(c1)C(=CCCN1CCC(O)(c3ccc(Cl)cc3)CC1)c1cccnc1CO2 [Example 431, 4-(4-Chlorophenyl)-1-[3-(5,11-dihydro-7-(2,2-diethylaminoethyl-1-yl)-oxycarbonyl-[1]benzoxepino[2,3-b]pyridin-5-ylidene)propyl]piperidine-4-ol] has an IC50 [1] of less than 1 µM.
CC(C)(C)C(=O)OCOC(=O)c1ccc2c(c1)C(=CCCN1CCC(O)(c3ccc(Cl)cc3)CC1)c1cccnc1CO2 [Example 432, 4-(4-Chlorophenyl)-1-[3-(5,11-dihydro-7-(1-2,2-dimethylpropionyl-oxymethyl)-oxycarbonyl-[1]benzoxepino[2,3-b]pyridin-5-ylidene)propyl]piperidine-4-ol] showed an IC50 [1] of less than 1 µM.
CC(C)(O)c1ccc2c(c1)C(=CCCN1CCC(C#N)(c3ccc(Cl)cc3)CC1)c1cccnc1CO2 [Example 456, 4-(4-Chloro-phenyl)-1-{3-[7-(1-hydroxy-1-methyl-ethyl)-11H-10-oxa-1-aza-dibenzo-[a,d]cyclohepten-5-ylidene]-propyl}-piperidine-4-carbonitrile] showed an IC50 [1] of less than 1 µM.
With CC(=O)C1(c2ccc(Cl)cc2)CCN(CCC=C2c3cc(C(C)(C)O)ccc3OCc3ncccc32)CC1 [Example 457, 1-(4-(4-Chloro-phenyl)-1-{3-[7-(1-hydroxy-1-methyl-ethyl)-11H-10-oxa-1-aza-dibenzo[a,d]cyclohepten-5-ylidene]-propyl}-piperidin-4-yl)-ethanone] the IC50 [1] was less than 1 µM.
Work on COC(=O)C1(c2ccc(Cl)cc2)CCN(CCC=C2c3cc(C(C)(C)O)ccc3OCc3ncccc32)CC1 [Example 458, 4-(4-Chloro-phenyl)-1-{3-[7-(1-hydroxy-1-methyl-ethyl)-11H-10-oxa-1-aza-dibenzo[a,d]cyclohepten-5-ylidene]-propyl}-piperidine-4-carboxylic acid methyl ester] yielded an IC50 [1] of less than 10 µM.
CC(C)(O)c1ccc2c(c1)C(=CCCN1CCC(C(=O)O)(c3ccc(Cl)cc3)CC1)c1cccnc1CO2 [Example 459, 4-(4-Chloro-phenyl)-1-{3-[7-(1-hydroxy-1-methyl-ethyl)-11H-10-oxa-1-aza-dibenzo[a,d]cyclohepten-5-ylidene]-propyl}-piperidine-4-carboxylic acid] gave an IC50 [1] of less than 10 µM.
CC(C)(O)c1ccc2c(c1)C(=CCCN1CCC(C(N)=O)(c3ccc(Cl)cc3)CC1)c1cccnc1CO2 [Example 460, 4-(4-Chloro-phenyl)-1-{3-[7-(1-hydroxy-1-methyl-ethyl)-11H-10-oxa-1-aza-dibenzo[a,d]cyclohepten-5-ylidene]-propyl}-piperidine-4-carboxylic acid amide] gave an IC50 [1] of less than 1 µM.
Work on CC(C)(O)c1ccc2c(c1)C(=CCCN1CCC(CO)(c3ccc(Cl)cc3)CC1)c1cccnc1CO2 [Example 461, 2-(5-{3-[4-(4-Chloro-phenyl)-4-hydroxymethyl-piperidin-1-yl]-propylidene}-5,11-dihydro-10-oxa-1-aza-dibenzo[a,d]cyclohepten-7-yl)-propan-2-ol] yielded an IC50 [1] of less than 10 µM.
With CC(O)C1(c2ccc(Cl)cc2)CCN(CCC=C2c3cc(C(C)(C)O)ccc3OCc3ncccc32)CC1 (stereo not shown) [Example 462, 2-(5-{3-[4-(4-chloro-phenyl)-4-(1-hydroxy-ethyl)-piperidin-1-yl]-propylidene}-5,11-dihydro-10-oxa-1-aza-dibenzo [a,d]cyclohepten-7-yl)-propan-2-ol] the IC50 [1] was less than 10 µM.
CC(C)(O)c1ccc2c(c1)C(=CCCN1CCC(c3ccc(Cl)cc3)(C(C)(C)O)CC1)c1cccnc1CO2 [Example 463, 2-(5-{3-[4-(4-Chloro-phenyl)-4-(1-hydroxy-1-methyl-ethyl)-piperidin-1-yl]-propylidene}-5,11-dihydro-10-oxa-1-aza-dibenzo[a,d]cyclohepten-7-yl)-propan-2-ol] gave an IC50 [1] of less than 10 µM.
With CC(C)(O)c1ccc2c(c1)C(=CCCN1CCC(C#N)(Nc3ccc(Cl)cc3)CC1)c1cccnc1CO2 [Example 464, 4-(4-Chloro-phenylamino)-1-{3-[7-(1-hydroxy-1-methyl-ethyl)-11H-10-oxa-1-aza-dibenzo[a,d]cyclohepten-5-ylidene]-propyl}-piperidine-4-carbonitrile] the IC50 was less than 1 µM.
COC(=O)C1(Nc2ccc(Cl)cc2)CCN(CCC=C2c3cc(C(C)(C)O)ccc3OCc3ncccc32)CC1 [Example 465, 4-(4-Chloro-phenylamino)-1-{3-[7-(1-hydroxy-1-methyl-ethyl)-11H-10-oxa-1-aza-dibenzo[a,d]cyclohepten-5-ylidene]-propyl}-piperidine-4-carboxylic acid methyl ester] gave an IC50 of less than 1 µM.
In the case of CC(C)(O)c1ccc2c(c1)C(=CCCN1CCC(Nc3ccc(Cl)cc3)(C(N)=O)CC1)c1cccnc1CO2 [Example 466, 4-(4-Chloro-phenylamino)-1-{3-[7-(1-hydroxy-1-methyl-ethyl)-11H-10-oxa-1-aza-dibenzo[a,d]cyclohepten-5-ylidene]-propyl}-piperidine-4-carboxylic acid amide], the IC50 is reported as less than 50 µM.
CC(C)(O)c1ccc2c(c1)C(=CCCN1CCC(F)(c3ccc(Cl)cc3)CC1)c1cccnc1CO2 [Example 467, 2-(5-{3-[4-(4-Chloro-phenyl)-4-fluoro-piperidin-1-yl]-propylidene}-5,11-dihydro-10-oxa-1-aza-dibenzo[a,d]cyclohepten-7-yl)-propan-2-ol] gave an IC50 [1] of less than 1 µM.
In the case of CC(C)(O)c1ccc2c(c1)C(=CCCN1CCC(F)(c3ccc(Cl)cc3)C(O)C1)c1cccnc1CO2 (stereo not shown) [Example 468, 4-(4-Chloro-phenyl)-4-fluoro-1-{3-[7-(1-hydroxy-1-methyl-ethyl)-11H-10-oxa-1-aza-dibenzo[a,d]cyclohepten-5-ylidene]-propyl}-piperidin-3-ol], the IC50 [1] is reported as less than 1 µM.
In the case of CC1CN(CCC=C2c3cc(C(C)(C)O)ccc3OCc3ncccc32)CCC1(F)c1ccc(Cl)cc1 (stereo not shown) [Example 469, 2-(5-{3-[4-(4-Chloro-phenyl)-4-fluoro-3-methyl-piperidin-1-yl]-propylidene}-5,11-dihydro-10-oxa-1-aza-dibenzo[a,d]cyclohepten-7-yl)-propan-2-ol], the IC50 [1] is reported as less than 1 µM.
Compound CC(C)(O)c1ccc2c(c1)C(=CCCN1CCC(O)(c3ccc(Cl)cc3)C(O)C1)c1cccnc1CO2 (stereo not shown) [Example 470, 4-(4-Chloro-phenyl)-1-{3-[7-(1-hydroxy-1-methyl-ethyl)-11H-10-oxa-1-aza-dibenzo[a,d]cyclohepten-5-ylidene]-propyl}-piperidine-3,4-diol] has an IC50 [1] of less than 1 µM.
CCC1CN(CCC=C2c3cc(C(C)(C)O)ccc3OCc3ncccc32)CCC1(O)c1ccc(Cl)cc1 (stereo not shown) [Example 471, 4-(4-Chloro-phenyl)-3-ethyl-1-{3-[7-(1-hydroxy-1-methyl-ethyl)-11H-10-oxa-1-aza-dibenzo[a,d]cyclohepten-5-ylidene]-propyl}-piperidin-4-ol] was tested, and the IC50 [1] was less than 1 µM.
In the case of CC(C)(O)c1ccc2c(c1)C(=CCCN1CCC3(CC1)OC(=O)c1cc(Cl)ccc13)c1cccnc1CO2 [Example 472, 5-Chloro-1-{3-[7-(1-hydroxy-1-methyl-ethyl)-11H-10-oxa-1-aza-dibenzo[a,d]-cyclohepten-5-ylidene}-propyl]-spiro[3-oxo-1,3-dihydroisobenzofuran-1,4′-piperidine]], the IC50 [1] is reported as less than 1 µM.
With COC1(c2ccc(Cl)cc2)CCN(CCC=C2c3cc(C(C)(C)O)ccc3OCc3ncccc32)CC1(C)O (stereo not shown) [Example 473, 4-(4-Chloro-phenyl)-1-{3-[7-(1-hydroxy-1-methyl-ethyl)-11H-10-oxa-1-aza-dibenzo[a,d]cyclohepten-5-ylidene]-propyl}-4-methoxy-3-methyl-piperidin-3-ol] the IC50 [1] was less than 1 µM.
For COC1(c2ccc(Cl)cc2)CCN(CCC=C2c3cc(C(C)(C)O)ccc3OCc3ncccc32)CC1O (stereo not shown) [Example 474, 4-(4-Chloro-phenyl)-1-{3-[7-(1-hydroxy-1-methyl-ethyl)-11H-10-oxa-1-aza-dibenzo[a,d]cyclohepten-5-ylidene]-propyl}-4-methoxy-piperidin-3-ol], the IC50 [1] was less than 1 µM.
With COC1CN(CCC=C2c3cc(C(C)(C)O)ccc3OCc3ncccc32)CCC1(OC)c1ccc(Cl)cc1 (stereo not shown) [Example 475, 2-(5-{3-[4-(4-Chloro-phenyl)-3,4-dimethoxy-piperidin-1-yl]-propylidene}-5,11-dihydro-10-oxa-1-aza-dibenzo[a,d]cyclohepten-7-yl)-propan-2-ol] the IC50 [1] was less than 1 µM.
CC(C)(O)c1ccc2c(c1)C(=CCCN1CCC(O)(c3ccc(Cl)cc3)C(N=[N+]=[N-])C1)c1cccnc1CO2 (stereo not shown) [Example 476, 3-Azido-4-(4-chloro-phenyl)-1-{3-[7-(1-hydroxy-1-methyl-ethyl)-11H-10-oxa-1-aza-dibenzo[a,d]cyclohepten-5-ylidene}-propyl}-piperidin-4-ol] showed an IC50 [1] of less than 1 µM.
Work on CC(C)(O)c1ccc2c(c1)C(=CCCN1CCC(N=[N+]=[N-])(c3ccc(Cl)cc3)C(O)C1)c1cccnc1CO2 (stereo not shown) [Example 477, 4-Azido-4-(4-chloro-phenyl)-1-{3-[7-(1-hydroxy-1-methyl-ethyl)-11H-10-oxa-1-aza-dibenzo[a,d]cyclohepten-5-ylidene]-propyl}-piperidin-3-ol] yielded an IC50 [1] of less than 10 µM.
With CCC(=O)NC1CN(CCC=C2c3cc(C(C)(C)O)ccc3OCc3ncccc32)CCC1(O)c1ccc(Cl)cc1 (stereo not shown) [Example 478, N-[4-(4-Chloro-phenyl)-4-hydroxy-1-{3-[7-(hydroxyl-1-methyl-ethyl)-11H-10-oxa-1-aza-dibenzo[a,d]cyclohepten-5-ylidene]-propyl}-piperidin-3-yl)-propionamide] the IC50 [1] was less than 10 µM.
